Test results taken from patent US20250381243A1, “HETEROCYCLES AND USES THEREOF” (Kumquat Biosciences Inc., priority 2022, published 2025).
pIC50: −log10 of the molar value. Where two headings read alike, the source gives them in different places.

Tested on: A549 cells
Test: Cell proliferation assay (CellTiter-Glo), cells with K-Ras G12S mutation
Assay type: cell-based
Settings: Homo sapiens, read-out: Inhibition of A549 Cells (IC50)
Method: A549 (ATCC CRL-185) and LS123 (ATCC CRL-255) cell lines comprise a G12S mutation and can be used to assess Ras cellular signaling in vitro, e.g., in response to treatment with a compound described herein. A549 culture medium is prepared with RPMI-1640 and 10% heat-inactivated FBS. LS123 culture medium is prepared with RPMI-1640 and 10% heat-inactivated FBS. A CellTiter-Glo (CTG) luminescent based assay (Promega) is used to assess growth of the cells, as a measurement of the ability of the compounds herein to inhibit Ras signaling in the cells. The cells (e.g., 800 per well) are seeded in their respective culture medium in standard tissue culture-treated 384-well format plates (Falcon #08-772-116) or ultra-low attachment surface 384-well format plates (S-Bio #MS-9384WZ). The day after plating, cells are treated with a dilution series (e.g., a 10 point 3-fold dilution series) of the compounds herein (e.g., approximately 40 μl final volume per well). Cell viability can be monitored (e.g., approximately 6 days later) according to the manufacturer's recommended instructions, where CellTiter-Glo reagent is added (e.g., approximately 10 μl), vigorously mixed, covered, and placed on a plate shaker (e.g., approximately for 20 min) to ensure sufficient cell lysis prior to assessment of luminescent signal. The IC50 values are determined using the four parameter fit. The resulting IC50 value is a measurement of the ability of the test compound to reduce cell growth of Ras-driven cells (e.g., tumor cell lines) in vitro and/or in vivo.

Row | pIC50 (≤500 nM) | pIC50 (500 nM to 5 μM (mixed units)) | SMILES
1 | ≥ 6.30 |  | CC(C)[C@H]1N(C(=O)n2cnc(C(F)F)n2)C[C@]12CC[C@H](C)N(c1nc(OC[C@@]34CCCN3C[C@H](F)C4)nc3c(F)c(-c4ccc(F)c5sc(N)c(C#N)c45)c(Cl)cc13)C2 (atropisomer, axis not shown; (aS)) [Compound 109, (R)-2-amino-4-(6-chloro-4-((1R,4R,7S)-2-(3-(difluoromethyl)-1H-1,2,4-triazole-1-carbonyl)-1-isopropyl-7-methyl-2,6-diazaspiro[3.5]nonan-6-yl)-8-fluoro-2-(((2R,7aS)-2-fluorotetrahydro-1H-pyrrolizin-7a(5H)-yl)methoxy)quinazolin-7-yl)-7-fluorobenzo[b]thiophene-3-carbonitrile]
2 | ≥ 6.30 |  | CN(C[C@@H]1CN(C(=O)n2cnc(C#N)n2)[C@@H]1C1CCC1)c1nc(OC[C@@]23CCCN2C[C@H](F)C3)nc2c(F)c(-c3ccc(F)c4sc(N)c(C#N)c34)c(Cl)cc12 (atropisomer, axis not shown; (aS)) [Compound 150, 1-((2R,3R)-3-(((7-((R)-2-amino-3-cyano-7-fluorobenzo[b]thiophen-4-yl)-6-chloro-8-fluoro-2-(((2R,7aS)-2-fluorotetrahydro-1H-pyrrolizin-7a (5H)-yl)methoxy)quinazolin-4-yl)(methyl)amino)methyl)-2-cyclobutylazetidine-1-carbonyl)-1H-1,2,4-triazole-3-carbonitrile]
3 | ≥ 6.30 |  | CC(C)[C@@H]1[C@H](CN(C)c2nc(OC[C@@]34CCCN3C[C@H](F)C4)nc3c(F)c(-c4ccc(F)c5sc(N)c(C#N)c45)c(Cl)cc23)CN1C(=O)n1cnc(C#N)n1 (atropisomer, axis not shown; (aS)) [Compound 162, 1-((2R,3R)-3-(((7-((R)-2-amino-3-cyano-7-fluorobenzo[b]thiophen-4-yl)-6-chloro-8-fluoro-2-(((2R,7aS)-2-fluorotetrahydro-1H-pyrrolizin-7a (5H)-yl)methoxy)quinazolin-4-yl)(methyl)amino)methyl)-2-isopropylazetidine-1-carbonyl)-1H-1,2,4-triazole-3-carbonitrile]
4 | ≥ 6.30 |  | CCN(C(=O)n1cnc(Cl)n1)[C@@H]1CCN(c2nc(OC[C@@]34CCCN3C[C@H](F)C4)nc3c(F)c(-c4ccc(F)c5sc(N)c(C#N)c45)c(Cl)cc23)[C@@H]1C (atropisomer, axis not shown; (aS)) [Compound 176, N-((2R,3R)-1-(7-((R)-2-amino-3-cyano-7-fluorobenzo[b]thiophen-4-yl)-6-chloro-8-fluoro-2-(((2R,7aS)-2-fluorotetrahydro-1H-pyrrolizin-7a (5H)-yl)methoxy)quinazolin-4-yl)-2-methylpyrrolidin-3-yl)-3-chloro-N-ethyl-1H-1,2,4-triazole-1-carboxamide]
5 | ≥ 6.30 |  | C[C@H]1CC[C@]2(CN(C(=O)n3cnc(C(F)F)n3)[C@@H]2C2(C)CC2)CN1c1nc(OC[C@@]23CCCN2C[C@H](F)C3)nc2c(F)c(-c3ccc(F)c4sc(N)c(C#N)c34)c(Cl)cc12 (atropisomer, axis not shown; (aS)) [Compound 178, (R)-2-amino-4-(6-chloro-4-((1R,4R,7S)-2-(3-(difluoromethyl)-1H-1,2,4-triazole-1-carbonyl)-7-methyl-1-(1-methylcyclopropyl)-2,6-diazaspiro[3.5]nonan-6-yl)-8-fluoro-2-(((2R,7aS)-2-fluorotetrahydro-1H-pyrrolizin-7a (5H)-yl)methoxy)quinazolin-7-yl)-7-fluorobenzo[b]thiophene-3-carbonitrile]
6 | ≥ 6.30 |  | CC1([C@H]2N(C(=O)n3cnc(F)n3)C[C@]23CCCCN(c2nc(OC[C@@]45CCCN4C[C@H](F)C5)nc4c(F)c(-c5ccc(F)c6sc(N)c(C#N)c56)c(Cl)cc24)C3)CC1 (atropisomer, axis not shown; (aS)) [Compound 193, (R)-2-amino-4-(6-chloro-8-fluoro-4-((1R,4R)-2-(3-fluoro-1H-1,2,4-triazole-1-carbonyl)-1-(1-methylcyclopropyl)-2,6-diazaspiro[3.6]decan-6-yl)-2-(((2R,7aS)-2-fluorotetrahydro-1H-pyrrolizin-7a (5H)-yl)methoxy)quinazolin-7-yl)-7-fluorobenzo[b]thiophene-3-carbonitrile]
7 | ≥ 6.30 |  | C[C@H]1CC[C@]2(CN(C(=O)n3cnc(F)n3)[C@@H]2C2(C(F)F)CC2)CN1c1nc(OC[C@@]23CCCN2C[C@H](F)C3)nc2c(F)c(-c3ccc(F)c4sc(N)c(C#N)c34)c(Cl)cc12 (atropisomer, axis not shown; (aS)) [Compound 194, (R)-2-amino-4-(6-chloro-4-((1S,4R,7S)-1-(1-(difluoromethyl)cyclopropyl)-2-(3-fluoro-1H-1,2,4-triazole-1-carbonyl)-7-methyl-2,6-diazaspiro[3.5]nonan-6-yl)-8-fluoro-2-(((2R,7aS)-2-fluorotetrahydro-1H-pyrrolizin-7a(5H)-yl)methoxy)quinazolin-7-yl)-7-fluorobenzo[b]thiophene-3-carbonitrile]
8 |  | 5.30 to 6.30 | CC1CC(N(C)C(=O)n2cnc(Cl)n2)CN1c1nc(OC[C@@]23CCCN2C[C@H](F)C3)nc2c(F)c(-c3ccc(F)c4sc(N)c(C#N)c34)c(Cl)cc12 (single isomer, unassigned) [Compound 105]
9 | ≥ 6.30 |  | CC(C)C1N(C(=O)n2cnc(Cl)n2)CC12CC(CC#N)CN(c1nc(OC[C@@]34CCCN3C[C@H](F)C4)nc3c(F)c(-c4ccc(F)c5sc(N)c(C#N)c45)c(Cl)cc13)C2 (single isomer, unassigned) [Compound 117]
10 |  | 5.30 to 6.30 | CC1C2C(CCN2c2nc(OC[C@@]34CCCN3C[C@H](F)C4)nc3c(F)c(-c4ccc(F)c5sc(N)c(C#N)c45)c(Cl)cc23)CN1C(=O)n1cncn1 (single isomer, unassigned) [Compound 121]
11 | ≥ 6.30 |  | CCN(C(=O)n1cnc(Cl)n1)[C@@H]1CCN(c2nc(OC[C@@]34CCCN3C[C@H](F)C4)nc3c(F)c(-c4ccc(F)c5sc(N)c(C#N)c45)c(Cl)cc23)[C@@H]1C (single isomer, unassigned) [Compound 171]
12 |  | 5.30 to 6.30 | CN(CC1(C)CCN1C(=O)n1cnc(Cl)n1)c1nc(OC[C@@]23CCCN2C[C@H](F)C3)nc2c(F)c(-c3ccc(F)c4sc(N)c(C#N)c34)c(Cl)cc12 (single isomer, unassigned) [Compound 183]
13 | ≥ 6.30 |  | CN(C(=O)n1cnc(Cl)n1)C1CCN(c2nc(OC[C@@]34CCCN3C[C@H](F)C4)nc3c(F)c(-c4ccc(F)c5sc(N)c(C#N)c45)c(Cl)cc23)C1(C)C (single isomer, unassigned) [Compound 198]
14 | ≥ 6.30 |  | N#Cc1c(N)sc2c(F)ccc(-c3c(Cl)cc4c(N5CCC6(C5)CN(C(=O)n5cncn5)C6C5CC5)nc(OC[C@@]56CCCN5C[C@H](F)C6)nc4c3F)c12 (single isomer, unassigned) [Compound 203]
15 | ≥ 6.30 |  | CC(C)[C@H]1N(C(=O)n2cncn2)C[C@@]12CN(c1nc(OC[C@@]34CCCN3C[C@H](F)C4)nc3c(F)c(-c4ccc(F)c5sc(N)c(C#N)c45)c(Cl)cc13)CCO2 [Compound 104, 2-amino-4-(6-chloro-8-fluoro-2-(((2R,7aS)-2-fluorotetrahydro-1H-pyrrolizin-7a(5H)-yl)methoxy)-4-((1R,4S)-1-isopropyl-2-(1H-1,2,4-triazole-1-carbonyl)-5-oxa-2,8-diazaspiro[3.5]nonan-8-yl)quinazolin-7-yl)-7-fluorobenzo[b]thiophene-3-carbonitrile]
